Columns and labels:
[1] = target: T1, USP1-UAF1 complex (Homo sapiens, UniProt O94782); experiment: biochemical
Method: (§1) Biochemical Assay: The compounds were evaluated for their potential to inhibit USP1-UAF1 complex (Boston Biochem, Catalog: E568-050) using a fluorescence-based assay. The final concentrations of USP1-UAF1 complex protein and substrate Ubiquitin-Rhodamine-110 (R&D systems, Catalog U-555-050) used in the assay were 0.45 and 150 nM respectively. 50 mM HEPES pH. 7.5, 100 mM NaCl, 0.5 mM EDTA, 1 mM TCEP, 10% BSA, 0.01% Tween 20 buffer was used in the assay. The total assay volume was 20 μL. […] The final DMSO concentration in the assay was 1%. The compounds were pre-incubated with USP1-UAF1 complex at 25° C. for 15 min. After preincubation, required concentration of substrate was added and incubated at 25° C. for 60 min. Fluorescence at Excitation: 485 nm, Emission: 535 nm was measured in Victor-5 from Perkin Elmer.
(§2) To determine IC50 values, dose response curves were generated by plotting percentage inhibition as a function of inhibitor concentration and the data was fitted to sigmoidal non-linear regression equation (variable slope) using Graph Pad prism software V8.
(§3) The compounds were screened by the above-mentioned assay procedure.

[2] = target: T1, USP1-UAF1 complex; settings: 1.2 µM
Method: as §1, §2, §3

T1 sequence (O94782 whole entry): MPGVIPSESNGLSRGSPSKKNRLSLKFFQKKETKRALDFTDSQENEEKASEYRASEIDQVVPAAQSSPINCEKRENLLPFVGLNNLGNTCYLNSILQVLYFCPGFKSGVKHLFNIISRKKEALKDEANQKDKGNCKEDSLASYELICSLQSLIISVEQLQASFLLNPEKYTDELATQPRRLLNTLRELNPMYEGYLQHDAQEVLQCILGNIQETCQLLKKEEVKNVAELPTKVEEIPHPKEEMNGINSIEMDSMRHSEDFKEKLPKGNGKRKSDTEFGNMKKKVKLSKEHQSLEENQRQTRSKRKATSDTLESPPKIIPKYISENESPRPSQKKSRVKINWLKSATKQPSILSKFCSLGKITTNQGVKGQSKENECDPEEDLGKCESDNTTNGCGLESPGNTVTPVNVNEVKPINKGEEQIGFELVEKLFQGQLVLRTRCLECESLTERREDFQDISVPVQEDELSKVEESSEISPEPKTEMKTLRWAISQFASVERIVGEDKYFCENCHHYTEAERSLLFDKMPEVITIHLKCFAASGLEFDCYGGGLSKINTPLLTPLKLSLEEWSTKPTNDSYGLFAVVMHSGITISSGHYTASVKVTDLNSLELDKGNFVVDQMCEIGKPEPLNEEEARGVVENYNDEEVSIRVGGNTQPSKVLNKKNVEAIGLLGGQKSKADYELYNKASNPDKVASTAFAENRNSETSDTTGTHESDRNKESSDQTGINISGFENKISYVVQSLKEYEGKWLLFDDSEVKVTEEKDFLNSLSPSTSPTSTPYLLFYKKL
T1 sequence (Q8TAF3 whole entry partner): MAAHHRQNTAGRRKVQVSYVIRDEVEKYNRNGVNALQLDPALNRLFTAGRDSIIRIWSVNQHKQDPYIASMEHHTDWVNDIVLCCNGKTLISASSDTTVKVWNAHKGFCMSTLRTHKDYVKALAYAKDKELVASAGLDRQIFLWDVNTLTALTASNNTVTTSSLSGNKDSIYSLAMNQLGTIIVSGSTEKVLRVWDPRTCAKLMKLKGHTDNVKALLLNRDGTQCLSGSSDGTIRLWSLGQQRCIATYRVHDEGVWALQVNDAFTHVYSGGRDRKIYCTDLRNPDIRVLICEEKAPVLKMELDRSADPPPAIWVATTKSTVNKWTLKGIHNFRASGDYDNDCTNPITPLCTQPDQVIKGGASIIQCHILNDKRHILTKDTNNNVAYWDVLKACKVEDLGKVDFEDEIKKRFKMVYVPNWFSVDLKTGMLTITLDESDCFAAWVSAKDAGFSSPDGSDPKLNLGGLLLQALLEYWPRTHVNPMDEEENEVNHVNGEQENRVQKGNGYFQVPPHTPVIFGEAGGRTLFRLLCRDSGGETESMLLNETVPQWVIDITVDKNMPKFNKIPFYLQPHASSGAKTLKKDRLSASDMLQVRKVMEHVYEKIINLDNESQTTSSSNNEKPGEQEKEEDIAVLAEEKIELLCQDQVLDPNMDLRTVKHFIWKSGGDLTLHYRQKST

Row | IC50 [1] [nM] | inhibition [2] [%] | SMILES
1 | 50 to 100 | 98 | COc1ncnc(C2CC2)c1-c1nn(C)c2c1CN(c1ccc(-c3nc(C(F)(F)F)cn3C)cc1)CC2 [Compound 1, 3-(4-cyclopropyl-6-methoxypyrimidin-5-yl)-1-methyl-5-(4-(1-methyl-4-(trifluoromethyl)-1H-imidazol-2-yl)phenyl)-4,5,6,7-tetrahydro-1H-pyrazolo[4,3-c]pyridine]
2 | > 100 | 81 | CC(C)c1ncccc1-c1nn(C)c2c1CN(c1ccc(-c3nc(C(F)(F)F)cn3C)nc1)CC2 [Compound 4, 3-(2-isopropylpyridin-3-yl)-1-methyl-5-(6-(1-methyl-4-(trifluoromethyl)-1H-imidazol-2-yl)pyridin-3-yl)-4,5,6,7-tetrahydro-1H-pyrazolo[4,3-c]pyridine]
3 | < 50 | 100 | CCn1cc(C(F)(F)F)nc1-c1ccc(N2CCc3c(c(-c4c(OC)ncnc4C4CC4)nn3C)C2)cc1 [Compound 5, 3-(4-cyclopropyl-6-methoxypyrimidin-5-yl)-5-(4-(1-ethyl-4-(trifluoromethyl)-1H-imidazol-2-yl)phenyl)-1-methyl-4,5,6,7-tetrahydro-1H-pyrazolo[4,3-c]pyridine]
4 | < 50 | 99 | COCCn1cc(C(F)(F)F)nc1-c1ccc(N2CCc3c(c(-c4c(OC)ncnc4C4CC4)nn3C)C2)cc1 [Compound 9, 3-(4-cyclopropyl-6-methoxypyrimidin-5-yl)-5-(4-(1-(2-methoxyethyl)-4-(trifluoromethyl)-1H-imidazol-2-yl)phenyl)-1-methyl-4,5,6,7-tetrahydro-1H-pyrazolo[4,3-c]pyridine]
5 | > 100 | 88 | COc1ncnc(C2CC2)c1-c1nn(C)c2c1CN(c1ccc(-c3nc(C(F)(F)F)cn3CCN(C)C)cc1)CC2 [Compound 10, 2-(2-(4-(3-(4-cyclopropyl-6-methoxypyrimidin-5-yl)-1-methyl-1,4,6,7-tetrahydro-5H-pyrazolo[4,3-c]pyridin-5-yl)phenyl)-4-(trifluoromethyl)-1H-imidazol-1-yl)-N,N-dimethylethan-1-amine]
6 | > 100 | 86 | COc1ncnc(C2CC2)c1-c1nn(C)c2c1CN(c1ccc(-c3nc(C(F)(F)F)cn3C3CN(C)C3)cc1)CC2 [Compound 11, 3-(4-cyclopropyl-6-methoxypyrimidin-5-yl)-1-methyl-5-(4-(1-(1-methylazetidin-3-yl)-4-(trifluoromethyl)-1H-imidazol-2-yl)phenyl)-4,5,6,7-tetrahydro-1H-pyrazolo[4,3-c]pyridine]
7 | < 50 | 98 | COc1ncnc(C2CC2)c1-c1nn(C)c2c1CN(c1ccc(-c3nc(C(F)(F)F)cn3C)nc1)CC2 [Compound 12, 3-(4-cyclopropyl-6-methoxypyrimidin-5-yl)-1-methyl-5-(6-(1-methyl-4-(trifluoromethyl)-1H-imidazol-2-yl)pyridin-3-yl)-4,5,6,7-tetrahydro-1H-pyrazolo[4,3-c]pyridine]
8 | 50 to 100 | 99 | CCn1cc(C(F)(F)F)nc1-c1ccc(N2CCc3c(c(-c4c(OC)ncnc4C4CC4)nn3C)C2)nc1 [Compound 14, 3-(4-cyclopropyl-6-methoxypyrimidin-5-yl)-5-(5-(1-ethyl-4-(trifluoromethyl)-1H-imidazol-2-yl)pyridin-2-yl)-1-methyl-4,5,6,7-tetrahydro-1H-pyrazolo[4,3-c]pyridine]
9 | 50 to 100 | 96 | COc1ncnc(C2CC2)c1-c1nn(C)c2c1CN(c1ccc(-c3nc(C(F)(F)F)cn3C(C)C)cn1)CC2 [Compound 15, 3-(4-cyclopropyl-6-methoxypyrimidin-5-yl)-5-(5-(1-isopropyl-4-(trifluoromethyl)-1H-imidazol-2-yl)pyridin-2-yl)-1-methyl-4,5,6,7-tetrahydro-1H-pyrazolo[4,3-c]pyridine]
10 | < 50 | 99 | COc1ncnc(C2CC2)c1-c1nn(C)c2c1CN(c1ccc(-n3nc(C(F)(F)F)cc3OC)cc1)CC2 [Compound 19, 3-(4-cyclopropyl-6-methoxypyrimidin-5-yl)-5-(4-(5-methoxy-3-(trifluoromethyl)-1H-pyrazol-1-yl)phenyl)-1-methyl-4,5,6,7-tetrahydro-1H-pyrazolo[4,3-c]pyridine]
11 | < 50 | 99 | CCOc1cc(C(F)(F)F)nn1-c1ccc(N2CCc3c(c(-c4c(OC)ncnc4C4CC4)nn3C)C2)cc1 [Compound 20, 3-(4-cyclopropyl-6-methoxypyrimidin-5-yl)-5-(4-(5-ethoxy-3-(trifluoromethyl)-1H-pyrazol-1-yl)phenyl)-1-methyl-4,5,6,7-tetrahydro-1H-pyrazolo[4,3-c]pyridine]
12 | < 50 | 97 | COc1ncnc(C2CC2)c1-c1nn(C)c2c1CN(c1ccc(-c3nc(Cl)cn3C)cc1)CC2 [Compound 21, 5-(4-(4-chloro-1-methyl-1H-imidazol-2-yl)phenyl)-3-(4-cyclopropyl-6-methoxypyrimidin-5-yl)-1-methyl-4,5,6,7-tetrahydro-1H-pyrazolo[4,3-c]pyridine]
13 | < 50 | 98 | CCn1nc(-c2c(OC)ncnc2C2CC2)c2c1CCN(c1ccc(-c3nc(C(F)(F)F)cn3C)cc1)C2 [Compound 24, 3-(4-cyclopropyl-6-methoxypyrimidin-5-yl)-1-ethyl-5-(4-(1-methyl-4-(trifluoromethyl)-1H-imidazol-2-yl)phenyl)-4,5,6,7-tetrahydro-1H-pyrazolo[4,3-c]pyridine]
14 | > 100 | 92 | CCn1nc(-c2c(OC)ncnc2C2CC2)c2c1CCN(c1ccc(-c3nc(C(F)(F)F)cn3C)nc1)C2 [Compound 25, 3-(4-cyclopropyl-6-methoxypyrimidin-5-yl)-1-ethyl-5-(6-(1-methyl-4-(trifluoromethyl)-1H-imidazol-2-yl)pyridin-3-yl)-4,5,6,7-tetrahydro-1H-pyrazolo[4,3-c]pyridine]

Second part, the molecule before the results:

Row | SMILES | IC50 [1] [nM] | inhibition [2] [%]
15 | COc1cccc(C2CC2)c1-c1nn(C)c2c1CN(c1ccc(-c3nc(C(F)(F)F)cn3C)cc1)CC2 [Compound 2, 3-(2-cyclopropyl-6-methoxyphenyl)-1-methyl-5-(4-(1-methyl-4-(trifluoromethyl)-1H-imidazol-2-yl)phenyl)-4,5,6,7-tetrahydro-1H-pyrazolo[4,3-c]pyridine] | < 50 | –
16 | CC(C)c1ncccc1-c1nn(C)c2c1CN(c1ccc(-c3nc(C(F)(F)F)cn3C)cc1)CC2 [Compound 3, 3-(2-isopropylpyridin-3-yl)-1-methyl-5-(4-(1-methyl-4-(trifluoromethyl)-1H-imidazol-2-yl)phenyl)-4,5,6,7-tetrahydro-1H-pyrazolo[4,3-c]pyridine] | < 50 | 99
17 | COc1ncnc(C2CC2)c1-c1nn(C)c2c1CN(c1ccc(-c3nc(C(F)(F)F)cn3C(C)C)cc1)CC2 [Compound 6, 3-(4-cyclopropyl-6-methoxypyrimidin-5-yl)-5-(4-(1-isopropyl-4-(trifluoromethyl)-1H-imidazol-2-yl)phenyl)-1-methyl-4,5,6,7-tetrahydro-1H-pyrazolo[4,3-c]pyridine] | < 50 | 100
18 | COc1ncnc(C2CC2)c1-c1nn(C)c2c1CN(c1ccc(-c3nc(C(F)(F)F)cn3C3CC3)cc1)CC2 [Compound 7, 5-(4-(1-cyclopropyl-4-(trifluoromethyl)-1H-imidazol-2-yl)phenyl)-3-(4-cyclopropyl-6-methoxypyrimidin-5-yl)-1-methyl-4,5,6,7-tetrahydro-1H-pyrazolo[4,3-c]pyridine] | < 50 | 100
19 | COc1ncnc(C2CC2)c1-c1nn(C)c2c1CN(c1ccc(-c3nc(C(F)(F)F)cn3C3CCC3)cc1)CC2 [Compound 8, 5-(4-(1-cyclobutyl-4-(trifluoromethyl)-1H-imidazol-2-yl)phenyl)-3-(4-cyclopropyl-6-methoxypyrimidin-5-yl)-1-methyl-4,5,6,7-tetrahydro-1H-pyrazolo[4,3-c]pyridine] | < 50 | 100
20 | COc1ncnc(C2CC2)c1-c1nn(C)c2c1CN(c1ccc(-c3nc(C(F)(F)F)cn3C)cn1)CC2 [Compound 13, 3-(4-cyclopropyl-6-methoxypyrimidin-5-yl)-1-methyl-5-(5-(1-methyl-4-(trifluoromethyl)-1H-imidazol-2-yl)pyridin-2-yl)-4,5,6,7-tetrahydro-1H-pyrazolo[4,3-c]pyridine] | < 50 | 98
21 | COc1ncnc(C2CC2)c1-c1nn(C)c2c1CN(c1ccc(-c3nc(C(F)(F)F)cn3C3CCC3)cn1)CC2 [Compound 16, 5-(5-(1-cyclobutyl-4-(trifluoromethyl)-1H-imidazol-2-yl)pyridin-2-yl)-3-(4-cyclopropyl-6-methoxypyrimidin-5-yl)-1-methyl-4,5,6,7-tetrahydro-1H-pyrazolo[4,3-c]pyridine] | < 50 | 99
22 | COc1ncnc(C2CC2)c1-c1nn(C)c2c1CN(c1ccc(-n3nc(C(F)(F)F)cc3C)cc1)CC2 [Compound 17, 3-(4-cyclopropyl-6-methoxypyrimidin-5-yl)-1-methyl-5-(4-(5-methyl-3-(trifluoromethyl)-1H-pyrazol-1-yl)phenyl)-4,5,6,7-tetrahydro-1H-pyrazolo[4,3-c]pyridine] | < 50 | 100
23 | COc1ncccc1-c1ccc(N2CCc3c(c(-c4c(OC)ncnc4C4CC4)nn3C)C2)nc1 [Compound 22, 3-(4-cyclopropyl-6-methoxypyrimidin-5-yl)-5-(2'-methoxy-[3,3′-bipyridin]-6-yl)-1-methyl-4,5,6,7-tetrahydro-1H-pyrazolo[4,3-c]pyridine] | > 100 | 39
24 | COc1ncnc(C2CC2)c1-c1nn(C)c2c1CN(c1ccc(-c3c(C)noc3C)cn1)CC2 [Compound 23, 4-(6-(3-(4-cyclopropyl-6-methoxypyrimidin-5-yl)-1-methyl-1,4,6,7-tetrahydro-5H-pyrazolo[4,3-c]pyridin-5-yl)pyridin-3-yl)-3,5-dimethylisoxazole] | > 100 | 3

— US20260152498A1, “4,5,6,7-TETRAHYDRO-1H-PYRAZOLO[4,3-c]PYRIDINE COMPOUNDS AND DERIVATIVES AS USP1 INHIBITORS” (EXELIXIS, INC., priority 2022, published 2026)
